Test results published in PubChem BioAssay (NCI).
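Step 1: Grow cells in 96-well plates. Step 2: Expose to compound for 48 hours at 5 concentrations. Step 3: Interpolate endpoints linearly; if unreached, use highest concentration. At the GI50, growth is halved. TGI is the concentration that stops growth completely.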

Columns and labels:
Test in all cases: NCI tumour cell line growth inhibition, 48 h
786-0 renal = tested on: 786-0 renal
A498 renal = tested on: A498 renal
A549 NSCLC = tested on: A549 NSCLC
ACHN renal = tested on: ACHN renal
CAKI-1 renal = tested on: CAKI-1 renal
CCRF-CEM leukemia = tested on: CCRF-CEM leukemia
COLO 205 colon = tested on: COLO 205 colon
DU-145 prostate = tested on: DU-145 prostate
EKVX NSCLC = tested on: EKVX NSCLC
HCT-116 colon = tested on: HCT-116 colon
HCT-15 colon = tested on: HCT-15 colon
HL-60(TB) leukemia = tested on: HL-60(TB) leukemia
HT29 colon = tested on: HT29 colon
IGROV1 ovarian = tested on: IGROV1 ovarian
K-562 leukemia = tested on: K-562 leukemia
KM12 colon = tested on: KM12 colon
LOX IMVI melanoma = tested on: LOX IMVI melanoma
M14 melanoma = tested on: M14 melanoma
MCF7 breast = tested on: MCF7 breast
MDA-MB-231 breast = tested on: MDA-MB-231 breast
MDA-MB-435 = tested on: MDA-MB-435
MOLT-4 leukemia = tested on: MOLT-4 leukemia
NCI-H226 lung = tested on: NCI-H226 lung
NCI-H460 lung = tested on: NCI-H460 lung
NCI/ADR-RES ovarian = tested on: NCI/ADR-RES ovarian
OVCAR-3 ovarian = tested on: OVCAR-3 ovarian
OVCAR-4 ovarian = tested on: OVCAR-4 ovarian
OVCAR-5 ovarian = tested on: OVCAR-5 ovarian
OVCAR-8 ovarian = tested on: OVCAR-8 ovarian
RXF 393 renal = tested on: RXF 393 renal
SF-295 CNS = tested on: SF-295 CNS
SF-539 CNS = tested on: SF-539 CNS
SK-MEL-2 melanoma = tested on: SK-MEL-2 melanoma
SK-MEL-28 melanoma = tested on: SK-MEL-28 melanoma
SK-MEL-5 melanoma = tested on: SK-MEL-5 melanoma
SK-OV-3 ovarian = tested on: SK-OV-3 ovarian
SN12C renal = tested on: SN12C renal
SNB-19 CNS = tested on: SNB-19 CNS
SNB-75 CNS = tested on: SNB-75 CNS
SR leukemia = tested on: SR leukemia
SW-620 colon = tested on: SW-620 colon
TK-10 renal = tested on: TK-10 renal
U251 CNS = tested on: U251 CNS
UACC-257 melanoma = tested on: UACC-257 melanoma
UACC-62 melanoma = tested on: UACC-62 melanoma
UO-31 renal = tested on: UO-31 renal
HOP-62 NSCLC = tested on: HOP-62 NSCLC
HOP-92 NSCLC = tested on: HOP-92 NSCLC
HS 578T breast = tested on: HS 578T breast
MALME-3M melanoma = tested on: MALME-3M melanoma
NCI-H23 lung = tested on: NCI-H23 lung
NCI-H522 lung = tested on: NCI-H522 lung
PC-3 prostate = tested on: PC-3 prostate
RPMI-8226 leukemia = tested on: RPMI-8226 leukemia
SF-268 CNS = tested on: SF-268 CNS
T-47D breast = tested on: T-47D breast

Compound: OCC1OC(c2ccccc2)CC1O (centres undefined)
- TGI (786-0 renal): > 100 µM
- TGI (A498 renal): > 100 µM
- TGI (A549 NSCLC): > 100 µM
- TGI (ACHN renal): > 100 µM
- TGI (CAKI-1 renal): > 100 µM
- TGI (CCRF-CEM leukemia): > 100 µM
- TGI (COLO 205 colon): > 100 µM
- TGI (DU-145 prostate): > 100 µM
- TGI (EKVX NSCLC): > 100 µM
- TGI (HCT-116 colon): > 100 µM
- TGI (HCT-15 colon): > 100 µM
- TGI (HL-60(TB) leukemia): > 100 µM
- TGI (HT29 colon): > 100 µM
- TGI (IGROV1 ovarian): > 100 µM
- TGI (K-562 leukemia): > 100 µM
- TGI (KM12 colon): > 100 µM
- TGI (LOX IMVI melanoma): > 100 µM
- TGI (M14 melanoma): > 100 µM
- TGI (MCF7 breast): > 100 µM
- TGI (MDA-MB-231 breast): > 100 µM
- TGI (MDA-MB-435): > 100 µM
- TGI (MOLT-4 leukemia): > 100 µM
- TGI (NCI-H226 lung): > 100 µM
- TGI (NCI-H460 lung): > 100 µM
- TGI (NCI/ADR-RES ovarian): > 100 µM
- TGI (OVCAR-3 ovarian): > 100 µM
- TGI (OVCAR-4 ovarian): > 100 µM
- TGI (OVCAR-5 ovarian): > 100 µM
- TGI (OVCAR-8 ovarian): > 100 µM
- TGI (RXF 393 renal): > 100 µM
- TGI (SF-295 CNS): > 100 µM
- TGI (SF-539 CNS): > 100 µM
- TGI (SK-MEL-2 melanoma): > 100 µM
- TGI (SK-MEL-28 melanoma): > 100 µM
- TGI (SK-MEL-5 melanoma): > 100 µM
- TGI (SK-OV-3 ovarian): > 100 µM
- TGI (SN12C renal): > 100 µM
- TGI (SNB-19 CNS): > 100 µM
- TGI (SNB-75 CNS): > 100 µM
- TGI (SR leukemia): > 100 µM
- TGI (SW-620 colon): > 100 µM
- TGI (TK-10 renal): > 100 µM
- TGI (U251 CNS): > 100 µM
- TGI (UACC-257 melanoma): > 100 µM
- TGI (UACC-62 melanoma): > 100 µM
- TGI (UO-31 renal): > 100 µM

Compound: O=C(c1ccccc1)c1c(C(F)(F)F)n([O-])c2cc(F)c(F)cc2[n+]1=O
- TGI (786-0 renal): 1.03 µM
- TGI (A498 renal): 7.19 µM
- TGI (A549 NSCLC): 8.34 µM
- TGI (ACHN renal): 0.232 µM
- TGI (CAKI-1 renal): 1.76 µM
- GI50 (CCRF-CEM leukemia): 8.72 µM
- TGI (CCRF-CEM leukemia): > 100 µM
- TGI (COLO 205 colon): > 69.6 µM
- TGI (DU-145 prostate): 8.71 µM
- TGI (EKVX NSCLC): 5 µM
- TGI (HL-60(TB) leukemia): 1.55 µM
- TGI (HOP-62 NSCLC): 2.26 µM
- TGI (HOP-92 NSCLC): 0.324 µM
- TGI (HS 578T breast): 2.48 µM
- TGI (HT29 colon): > 100 µM
- TGI (IGROV1 ovarian): 6.79 µM
- TGI (KM12 colon): 3.9 µM
- TGI (M14 melanoma): 1.49 µM
- TGI (MALME-3M melanoma): 0.42 µM
- TGI (MCF7 breast): 1.71 µM
- TGI (MDA-MB-435): 4.14 µM
- TGI (MOLT-4 leukemia): 1.97 µM
- TGI (NCI-H226 lung): 5.69 µM
- TGI (NCI-H23 lung): 0.789 µM
- TGI (NCI-H460 lung): 8.53 µM
- TGI (NCI-H522 lung): > 7.96 µM
- TGI (NCI/ADR-RES ovarian): 1.63 µM
- TGI (OVCAR-3 ovarian): 1.16 µM
- TGI (OVCAR-4 ovarian): > 100 µM
- TGI (OVCAR-5 ovarian): 2.98 µM
- TGI (OVCAR-8 ovarian): 1.15 µM
- TGI (PC-3 prostate): 2.44 µM
- TGI (RPMI-8226 leukemia): > 100 µM
- TGI (RXF 393 renal): 2.22 µM
- TGI (SF-268 CNS): 2.45 µM
- TGI (SF-295 CNS): 5.66 µM
- TGI (SF-539 CNS): 1.67 µM
- TGI (SK-MEL-2 melanoma): 4.44 µM
- TGI (SK-MEL-28 melanoma): > 100 µM
- TGI (SK-MEL-5 melanoma): 3.33 µM
- TGI (SK-OV-3 ovarian): > 49.5 µM
- TGI (SNB-19 CNS): 10.8 µM
- TGI (SW-620 colon): > 100 µM
- TGI (T-47D breast): > 36.7 µM
- TGI (TK-10 renal): 0.816 µM
- TGI (UACC-257 melanoma): 3.76 µM
- TGI (UACC-62 melanoma): 5.08 µM
- TGI (UO-31 renal): 2.4 µM
